According to the NIST ThermoML archive (doi:10.1021/acs.jced.5b00820):
Numbers after ± are expanded uncertainties.

Assay: xn = mol fraction of the nth substance listed
Conditions: 102.2 kPa, Liquid, Vibrating tube method

With `C[Si](C)(O[Si](C)(C)c1ccccc1)c1ccccc1` [1,3-diphenyltetramethyldisiloxane] + C=C[Si](C)(C)O[Si](C)(C)C=C the mass density (318.15 K, x1 = 0.5498) was 896.23 ± 0.22 kg/m3, the mass density (318.15 K, x1 = 0.6002) was 904.21 ± 0.22 kg/m3 and the mass density (318.15 K, x1 = 0.6502) was 911.95 ± 0.21 kg/m3. The mass density (318.15 K, x1 = 0.7004) was 919.47 ± 0.21 kg/m3, the mass density (318.15 K, x1 = 0.7504) was 926.72 ± 0.21 kg/m3 and the mass density (318.15 K, x1 = 0.8003) was 933.7 ± 0.21 kg/m3. For the same compound, the mass density (318.15 K, x1 = 0.8498) was 940.48 ± 0.21 kg/m3, the mass density (318.15 K, x1 = 0.8986) was 946.94 ± 0.21 kg/m3 and the mass density (318.15 K, x1 = 0.9502) was 953.57 ± 0.21 kg/m3. It also gave a mass density (318.15 K, x1 = 1) of 959.76 ± 0.21 kg/m3, a mass density (323.15 K, x1 = 0.0502) of 794.89 ± 0.24 kg/m3 and a mass density (323.15 K, x1 = 0.1) of 806.21 ± 0.24 kg/m3. It also gave a mass density (323.15 K, x1 = 0.1487) of 816.9 ± 0.23 kg/m3, a mass density (323.15 K, x1 = 0.2002) of 827.77 ± 0.23 kg/m3 and a mass density (323.15 K, x1 = 0.2498) of 837.87 ± 0.23 kg/m3. For the same compound, the mass density (323.15 K, x1 = 0.3) was 847.66 ± 0.23 kg/m3, the mass density (323.15 K, x1 = 0.3503) was 857.2 ± 0.22 kg/m3 and the mass density (323.15 K, x1 = 0.3994) was 866.12 ± 0.22 kg/m3. For the same compound, the mass density (323.15 K, x1 = 0.4502) was 875.17 ± 0.22 kg/m3, the mass density (323.15 K, x1 = 0.5001) was 883.7 ± 0.22 kg/m3 and the mass density (323.15 K, x1 = 0.5498) was 891.95 ± 0.22 kg/m3. The mass density (323.15 K, x1 = 0.6002) was 899.93 ± 0.22 kg/m3, the mass density (323.15 K, x1 = 0.6502) was 907.71 ± 0.22 kg/m3 and the mass density (323.15 K, x1 = 0.7004) was 915.27 ± 0.21 kg/m3. The mass density (323.15 K, x1 = 0.7504) was 922.51 ± 0.21 kg/m3, the mass density (323.15 K, x1 = 0.8003) was 929.52 ± 0.21 kg/m3 and the mass density (323.15 K, x1 = 0.8498) was 936.33 ± 0.21 kg/m3. The mass density (323.15 K, x1 = 0.8986) was 942.83 ± 0.21 kg/m3, the mass density (323.15 K, x1 = 0.9502) was 949.47 ± 0.21 kg/m3 and the mass density (323.15 K, x1 = 1) was 955.68 ± 0.21 kg/m3. The mass density (328.15 K, x1 = 0.0502) was 789.94 ± 0.24 kg/m3, the mass density (328.15 K, x1 = 0.1) was 801.35 ± 0.24 kg/m3 and the mass density (328.15 K, x1 = 0.1487) was 812.12 ± 0.23 kg/m3. For the same compound, the mass density (328.15 K, x1 = 0.2002) was 823.05 ± 0.23 kg/m3, the mass density (328.15 K, x1 = 0.2498) was 833.22 ± 0.23 kg/m3 and the mass density (328.15 K, x1 = 0.3) was 843.06 ± 0.23 kg/m3. It also gave a mass density (328.15 K, x1 = 0.3503) of 852.68 ± 0.23 kg/m3, a mass density (328.15 K, x1 = 0.3994) of 861.63 ± 0.22 kg/m3 and a mass density (328.15 K, x1 = 0.4502) of 870.72 ± 0.22 kg/m3. The mass density (328.15 K, x1 = 0.5001) was 879.29 ± 0.22 kg/m3, the mass density (328.15 K, x1 = 0.5498) was 887.57 ± 0.22 kg/m3 and the mass density (328.15 K, x1 = 0.6002) was 895.59 ± 0.22 kg/m3. The mass density (328.15 K, x1 = 0.6502) was 903.38 ± 0.22 kg/m3, the mass density (328.15 K, x1 = 0.7004) was 911 ± 0.21 kg/m3 and the mass density (328.15 K, x1 = 0.7504) was 918.26 ± 0.21 kg/m3. It also gave a mass density (328.15 K, x1 = 0.8003) of 925.3 ± 0.21 kg/m3, a mass density (328.15 K, x1 = 0.8498) of 932.14 ± 0.21 kg/m3 and a mass density (328.15 K, x1 = 0.8986) of 938.64 ± 0.21 kg/m3. The mass density (328.15 K, x1 = 0.9502) was 945.33 ± 0.21 kg/m3 and the mass density (328.15 K, x1 = 1) was 951.57 ± 0.21 kg/m3.
